The test system of data set [1] is NF-κB signaling pathway in BV-2 microglial cells. The experiment in a line: qPCR of NF-κB downstream genes after LPS. The format is cell-based, murine. The following applies: BV-2 cells, dose-dependent. The procedure: After cell lysis with RLT buffer (Qiagen), RNA was extracted using the RNAeasy PLUS Mini Kit (Qiagen; #74136). The resulting cDNA was generated using the AccuPower CycleScript RT PreMix (dT20) kit (Bioneer; K2044) on a C1000 Touch Thermal Cycler (Bio-Rad; #1841000). qPCR was performed using a KAPA SYBR® FAST qPCR Master Mix (2×) Universal Kit (Kapa; KK4605) on a StepOne Real-Time PCR system (Applied Biosystems; #4376357). The cycling threshold value of the endogenous control gene GAPDH was subtracted from the cycling threshold value of each target gene to calculate the shift in cycling threshold (ΔCT). […] The primer sequence information for this analysis is shown in Supplementary Table 3.
NF-κB is a central mediator that induces proinflammatory cytokines, including TNF-α, IL-1β, IL-6, and chemokines. […] The expression level of the proinflammatory cytokine TNF-α was also monitored with SB26019 treatment.
Fig. 2 SB26019 has anti-inflammatory activity via the accumulation of tubulin monomers. […]
For orientation: Real-time PCR tracks product formation cycle by cycle.

In a further data set the test system is C57BL/6 mice. The experiment in a line: LPS neuroinflammation model. The data set is classed as in vivo. To be noted: 2 or 5 mg/kg IP daily for 4 days, LPS 5 mg/kg on Day 2. The procedure: All experiments were carried out with 10-week-old female C57BL/6 mice (20–25 g). The animals were divided into six experimental groups of three mice in each experiment: Group 1, treated with vehicle; Group 2, treated with SB26019 {2 mg/kg body weight (mpk)}; Group 3, treated with SB26019 (5 mpk); Group 4, treated with LPS and vehicle; Group 5, treated with LPS and SB26019 (2 mpk); and Group 6, treated with LPS and SB26019 (5 mpk). SB26019 (2 or 5 mpk) or vehicle {distilled water containing 5% DMSO and 40% polyethylene glycol 400 (TCI; N0433)} was administered with IP injection daily for 4 days. Five mpk of LPS (Sigma; L2880) in PBS was administered by IP injection on Day 2 for a single challenge. All mice were sacrificed on Day 5.
Mice were anesthetized with a mixture of alfaxalone and xylazine (5:1 ratio) and transcardially perfused with cold PBS. Mouse brains were harvested and fixed using 10% NBF (Sigma; HT501128) for 2 h. After washing with PBS for 30 min three times, fixed brains were embedded in OCT compound (Leica; #3801480) for frozen coronal sectioning at a thickness of 7 μm. […]
The perfused brains were minced with a 10 T scalpel blade. […] Microglia in the interphase between 70% and 37% Percoll solution was transferred and washed with HBSS media. mRNA was extracted from the microglia and analyzed with qPCR. […]

Data set [2] in a line: Pharmacokinetic (PK) study after IP injection. To be noted: C57BL/6, mouse, in vivo, I.P., 5 mg/kg.

For orientation: AUC(0-inf) means total exposure, with the tail of the curve extrapolated. As a reminder, the AUC(0-t) is exposure summed from dosing to a finite time, without extrapolation to infinity. Usually Cmax stands for the maximum level reached in the sampled fluid or tissue. Usually Tmax stands for the time at which the peak concentration occurs. A word on the half-life: it is how long it takes for the measured level to halve. A higher half-life goes with slow loss.

For `COc1ccc2c(c1O)OC(C)(C)C=C2c1cccc2c1oc1ccccc12` [Compound 8], in data set [1], the “mRNA of inflammatory marker genes (Ccl2, Cxcl10, Il-1β, Il-6, Nos2, Tnf)” value is recorded as “suppressed the production of inflammatory marker genes”. Moreover, in the data set on C57BL/6 mice, the “Microglial activation (Iba-1-positive region of the brain)” value was “efficiently regulated microglial activation in all brain regions in a dose-dependent manner”; the “Transcription levels of cytokines and chemokines in brain microglia (qPCR)” value is “efficiently inhibited the LPS-mediated upregulation of cytokines and chemokines”. In data set [2], the AUC(0-inf) stood at 1790 ± 310 ng·h/mL, the AUC(0-t) was 1770 ± 300 ng·h/mL, the peak concentration (Cmax) stood at 1200 ± 260 ng/mL and the Tmax worked out at 0.17 h. The same compound showed a half-life in data set [2] of 3.57 ± 0.62 h.

The record behind these values is article PMC9743128, “Phenotype-based screening rediscovered benzopyran-embedded microtubule inhibitors as anti-neuroinflammatory agents by modulating the tubulin–p65 interaction” (Experimental & Molecular Medicine, 2022).
